Assays:
[1] = tested on: Haemaphysalis longicornis; experiment: Test Example 11: coated screw tube, nymphal ticks Haemaphysalis longicornis; type: in vivo; settings: 2 mg compound in 0.2 mL acetone coated on inner wall of screw tube, non-blood-sucking nymphal ticks, after 2 days
Experimental: 2 mg of each of Compounds of Present Invention 1, 2, 13, 20, 21, 45 to 47, 52 to 55 and 57 and Intermediate Compound M6-13 was weighed in a screw tube (Maruemu No. 5; 27×55 mm), and 0.2 mL of acetone was added thereto and sealed with a cap to dissolve the compound. The screw tube was rotated and inverted to uniformity coat the drug solution onto the whole inner wall of the tube. After removing the cap, the solution was air-dried for about 2 hours, then non-blood-sucking nymphal ticks, Haemaphysalis longicornis (5 ticks/group) were released, and the tube was sealed with the cap. After 2 days, the number of dead ticks was examined, and the mortality was calculated according to the following equation: Mortality (%)=100×(Number of dead ticks/Number of tested ticks).

Musca domestica = experiment: Test Example 8: treated filter paper with sucrose bait, Musca domestica female adults; type: in vivo; settings: 500 ppm, 0.7 ml on filter paper, after 24 hours
Experimental: The formulations of Compounds of Present Invention 1 to 3, 9, 13 to 16 and 57 as obtained in Formulation Example 5 were diluted with water, so as to have a concentration of the active ingredient of 500 ppm, to prepare a diluted liquid for test.
A filter paper having a diameter of 5.5 cm was spread on the bottom of a polyethylene cup having the same diameter and 0.7 ml of the diluted liquid for test was added dropwise onto the filter paper, and 30 mg of sucrose was uniformly placed as bait. Into the polyethylene cup, 10 female adults of Musca domestica were released, and the cup was sealed with a lid. After 24 hours, survived and dead number of Musca domestica was examined, and the mortality was calculated.

Row | Structure (SMILES) | mortality [1] | mortality (Musca domestica)
1 | CCSc1ccccc1C(=O)N(C)c1ccc(C(F)(F)C(F)(F)F)cn1 [compound 13] | 100% | 
2 | CC[S+]([O-])c1cc(C(F)(F)F)ccc1C(=O)N(C)c1ccc(C(F)(F)C(F)(F)F)cn1 (stereo not shown) [compound 20] | 100% | 
3 | CC[S+]([O-])c1cc(C(F)(F)F)ccc1C(=O)N(C)c1ccc(SC(F)(F)F)cn1 (stereo not shown) [compound 21] | 100% | 
4 | CC[S+]([O-])c1ccccc1C(=O)N(C)c1ccc(SC(F)(F)F)cn1 (stereo not shown) [compound 57] |  | 100%

Source: patent US9392791B2, “Amide compound and use thereof for pest control” (Sumitomo Chemical Company, priority 2012, dated 2016)
